Assay [1] deals with LL2 cells. The assay can be described thus: Resazurin viability assay of LL2 cells (Example 4). The assay is classed as cell-based, mouse. The method, then:
(§1) 4T1 cells (ATCC, CRL-2539) were cultured in RPMI-1640 (Sigma, Cat. #R8758) supplemented with 10% fetal bovine serum (FBS), L-glutamine (4 mM), streptomycin (5 μg/ml) and penicillin (5 U/ml). […] Lewis lung carcinoma cells LL/2 (LLC1) (ATCC, CRL-1642™) were cultured in Dulbecco's Modified Eagle's Medium ATCC® 30-2002™ (4 mM L-glutamine, 4500 mg/L glucose, 1 mM sodium pyruvate, and 1500 mg/L sodium bicarbonate).
(§2) The IC50 of the different drugs were calculated by resazurin viability assay. […] The cells were treated for 48 hours.

Assay [2] concerns LL2 cells. The assay can be described thus: qRTPCR of IFN related genes in Lewis lung carcinoma (LL2) cells in vitro (Example 4). The assay is classed as cell-based, mouse. The method, then:
as §1
RNA was extracted from snap frozen tumors using the RNEasy Microarray Tissue Mini kit from Qiagen following the manufacturer's instructions. As tumors contained Doxorubicin and powderizing them could expose personnel to harmful substances, the RNA was extracted in a closed system using the GentleMACS dissociator and M Tubes. Purity and concentration of RNA was measured using Nanodrop. RT^2 Profiler™ PCR Array. cDNA was synthesized from RNA using the RT^2 First Strand kit (Qiagen) according to the manufacturer's instructions. cDNA was mixed with RT^2 SYBR Green Mastermix (Qiagen) and loaded into RT^2 Profiler™ PCR Array Mouse Type I Interferon Response or RT^2 Profiler™ PCR Array Mouse Epithelial to Mesenchymal Transition (EMT), analyzing the expression of the genes listed in Table 17. The plates were analyzed using Light Cycler 480 (Roche) and data were analyzed using the Qiagen Data Analysis Centre and Graph Pad (Prism).
Chemotherapeutic agents commonly used to treat lung cancer patients were evaluated for effects on the IFN response. Cisplatin, navelbine and docetaxel were tested in vitro in combination with bemcentinib.
as §2
(In general: In qPCR the cycle at which signal appears reflects the starting amount.)

Assay [3] has as its system type I IFN related genes (ISG). The assay can be described thus: RT2 Profiler PCR Array Mouse Type I Interferon Response on 4T1 tumors (Example 2). The assay is classed as in vivo, Balb/c mice. The source says:
Bemcentinib was given as a loading dose for 3 days (11-13 after tumor implantation) and then as a standard dose until sacrifice.
9 mice have been excluded of the study because of the absence of tumor on day 11. On day 11 post implantation half of the cages were placed in the bemcentinib treated group and the other half in the […]. The average tumor volume when bemcentinib treatment was initiated (day 11) was 54.99 mm^3. […] The tumor volumes when bemcentinib treatment was initiated and the day of randomization are recorded in table 8. The intra tumomoral injection of doxorubicin and sting agonists was adjusted to the tumor volume.
Doxorubicin is provided in a 2 mg/ml solution. As it is technically challenging to inject 50 ul liquid into tumors measuring <100 mm^3, the total dosing volume was calculated based on the following formula: V=50 ul×(TV/120). This is done to minimize variability due to leakage during intratumoral injection. For the 1 mg/kg dose (E,F) Doxorubicin was given at a concentration of 0.5 mg/ml, which corresponds to 1 mg/kg for a 25 g mouse with a tumor of 120 mm^3, and 1 mg/kg for a 20 g mouse with a tumor of 100 mm^3. For 3 mg/kg dose (G,H), a solution of 1.5 mg/ml was used and same volumes was injected. For the 6 mg/kg dose (I,J) the commercial solution of 2 mg/ml will be used and 75 ul was injected for tumor with a volume of 120 mm^3.
The same formula as for doxorubicin was used V=50 ul×(TV/120).
RNA was extracted from […] snap frozen tumors using the RNEasy Microarray Tissue Mini kit from Qiagen following the manufacturer's instructions. As tumors contained Doxorubicin and powderizing them could expose personnel to harmful substances, the RNA was extracted in a closed system using the GentleMACS dissociator and M Tubes. Purity and concentration of RNA was measured using Nanodrop. cDNA was synthesized from RNA using the RT^2 First Strand kit (Qiagen) according to the manufacturer's instructions. cDNA was mixed with RT^2 SYBR Green Mastermix (Qiagen) and loaded into RT Profiler™ PCR Array Mouse Type I Interferon Response or RT^2 Profiler™ PCR Array Mouse Epithelial to Mesenchymal Transition (EMT), analyzing the expression of 84 genes listed in Tables 9 and 10. The plates were analyzed using Light Cycler 480 (Roche) and data were analyzed using the Qiagen Data Analysis Centre and Graph Pad (Prism).
Quiagen RT^2 software was used to analyze all the samples from different groups. To be able to generate heatmaps and graph on fold change including error bars, the data have been analyzed manually with Graph Pad (Prism) when the Quiagen RT^2 software gave significant results between the different groups. For IFN type 1 response 1 mg/kg 48, 72 h and 3 mg/kg 48 h, were analyzed manually. For EMT, 1 mg/kg 48, 72 h, 3 mg/kg 72 h. When the data have been analyzed manually, the results are presented as histograms of mRNA fold changes. For the time points and doses analyzed by the software, the results are presented as tables.
GraphPadPrism was used to generate the heat maps, graphs with mRNA fold change, and to make the statistics. Multiple TTests, paired were performed on ΔΔ Ct values.
The expression of type I IFN related genes (ISG) was assessed in tumors collected 24, 48 and 72 hours after i.t. doxorubicin treatment. 3 groups were compared per timepoint: bemcentinib (bern), doxorubicin only (dox) and doxorubicin combined with bemcentinib (doxbern), the fold changes were compared with the control groups injected with PBS, and the fold change was 1 for the control groups.

The test system of assay [4] is 43 mouse cytokines. The assay can be described thus: Plasma cytokines, ProcartaPlex Multiplex Immunoassay (Luminex) (Example 2). The assay is classed as in vivo, Balb/c mice. Conditions: DMXAA, 48 h post injection, treated groups.
Procedure: The manufacturer user guide was followed. The samples were analyzed by (MAGPIX) and the results were obtained as concentration in pg/ml of mouse plasma. At least 3 samples per group, 4 for many, were analyzed.
Assay [5] relates to 4T1 mammary carcinoma cells. The assay can be described thus: Tumor growth, 4T1 model (Example 2). As to conditions: short in vivo study, single i.t. injection day 15. On the set-up: species or system Balb/c mice.
Procedure: Tumor growth was measured with a digital handheld caliper twice weekly from emergence of tumor and until the day of euthanasia
The test system of assay [6] is 4T1 cells. The assay can be described thus: qRTPCR of IFN related genes in 4T1 cells in vitro (Example 4). The assay is classed as cell-based, mouse. Conditions: with or without bemcentinib.
The subject of assay [7] is Yumm1.7 cells. The assay can be described thus: qRTPCR of IFN related genes in Yumm1.7 cells in vitro (Example 4). The assay is classed as cell-based, mouse. As to conditions: Yumm1.7 cells; DMXAA treatment; 13 ISG tested.
The mark [8] stands for this setting: in the presence of bemcentinib, read-out: IC50 with bem.
[9] abbreviates: Mus musculus, LL/2, read-out: IC50 without bem.

Where two headings read alike, the source gives them in different places.

What is called IC50 is the concentration that inhibits the measured activity by half.

Regarding `N.N.[Cl][Pt][Cl]` [Cisplatin, cisplatin], the IC50 was 4650 nM in assay [1] (setting [8]) and 6190 nM in assay [1] (read-out: IC50 without bem). Also, in assay [2] (cisplatin 5 uM, 48 hours), the “ISGs upregulated compared to control (number)” value was determined as 11.
With `Cc1ccc2c(=O)c3cccc(CC(=O)O)c3oc2c1C` [DMXAA, 5,6-Dimethylxanthenone-4-acetic Acid], the “ISG significantly upregulated compared to control (number)” value in assay [3] (24 hours after DMXAA i.t. treatment) amounted to 8. Also, the “ISG upregulated (number)” value in assay [3] (48 hours after DMXAA injection) is listed as 1; in assay [7], 4. For the same compound, the “Cytokines with different concentration compared with controls (number)” value in assay [4] amounted to 8. In assay [5], the Tumor growth entry is “decreased tumor growth”. In addition, the “IFN response after DMXAA stimulation” value in assay [6] was “No significant changes”. In addition, the IC50 without bem result in assay [1] is recorded as “No effect”. In addition, the IC50 with bem entry in assay [1] (in the presence of bemcentinib) is recorded as “No effect”. The “ISG upregulated compared to control (number)” value in assay [2] (DMXAA 25 ug/ml, 48 hours) was 20.
With `CC(=O)O[C@@]12CO[C@@H]1C[C@H](O)[C@@]1(C)C(=O)[C@H](O)C3=C(C)[C@@H](OC(=O)[C@H](O)[C@@H](NC(=O)OC(C)(C)C)c4ccccc4)C[C@@](O)([C@@H](OC(=O)c4ccccc4)[C@H]21)C3(C)C` [Docetaxel, docetaxel], the figures for the IC50 in assay [1] (setting [9]) and in assay [1] (setting [8]) were 14.1 nM and 7.26 nM, respectively. Besides, the “ISG significantly upregulated compared to control (number)” value in assay [2] (docetaxel 5 nM) is recorded as 2.
For `CCC1=C[C@@H]2CN(C1)Cc1c([nH]c3ccccc13)[C@@](C(=O)OC)(c1cc3c(cc1OC)N(C)[C@H]1[C@@](O)(C(=O)OC)[C@H](OC(C)=O)[C@]4(CC)C=CCN5CC[C@]31[C@@H]54)C2` [Navelbine, vinorelbine], the IC50 is 10.1 nM in assay [1] (setting [9]) and 0.752 nM in assay [1] (setting [8]). In addition, in assay [2] (navelbine 1 nM, 48 hours), the “ISG upregulated (number)” value was “Four”.

Values taken from patent US20230372337A1, “Combination Therapy Comprising an AXL Inhibitor” (BERGENBIO ASA, priority 2020, published 2023).
